# How the values were obtained:
# animals = assay: Repeated daily dose toxicity study (Dovetail Technologies, Inc.); format: in vivo
# Experimental: (§1) Thus, the toxic doses levels of the compounds appear high (assuming a similar biochemical pathway and not correcting for a different surface-area-to-weight ratio), a dose of 9,975 mg (9.9 g) would not be lethal for a 75-kg person.
# HL60 tumor cells = conditions: in vitro; mediated by increase in surface TNF-alpha; cited from earlier work
# [1] = test system: peripheral mononuclear cells; conditions: cited from earlier work
# melanoma = conditions: low doses, cited from earlier work
# [2] = Acute toxicology studies (MidAtlantic Bio-Research); format: in vivo
# Experimental: as §1
# [3] = test system: granzyme activity in T cells; conditions: cited from earlier work
# [4] = test system: patients with various complaints; assay: Clinical trials in patients with various complaints; format: in vivo, human
# Excerpt: (§2) Safety: As of Mar. […] As of Jul. […] Many of those patients report improvements in their conditions (see below)
# interferon gamma = conditions: unless cells also exposed to high levels of exogenous stimulation (then normalization); cited from earlier work
# normal volunteers = assay: Double-blind placebo-controlled homeopathic proving; format: in vivo, human
# Experimental: as §2
# Thirty-nine (39) patients have completed the first homeopathic proving trial. The study design was a true double blind and placebo-controlled.
# This double-blind placebo-controlled “proving” study was performed by David Riley. (Riley, Proving Report—Taurox SB. David Riley, M.D., Integrative Medicine Institute, Apr. 16, 2001, incorporated by reference in its entirety herein).
# [5] = test system: patients with at least moderate allergies; assay: Allergy study (Example 2); format: in vivo, human
# Excerpt: Table 3. Table 3 is the clinical data from all patients who reported at least moderate allergies at the pre-study.
# [6] = test system: Tumor necrosis factor alpha (TNF-alpha); conditions: cited from earlier work
compound,measurement,setting,value
O=C(CCNC(=O)OCc1ccccc1)NCCS(=O)(=O)O [Taurox SB],morbidity/mortality,"animals; 400 ug/kg daily for 9 days, 14-day post-administration period",no morbidity/mortality
same,weight gain,"animals; 400 ug/kg daily for 9 days, 14-day post-administration period, compared to saline-injected controls",all gained the appropriate amount of weight
same,gross necropsies,"animals; 400 ug/kg daily for 9 days, following euthanasia",no abnormal findings
same,toxic side effects,animals; oral daily doses of 400 ug/kg for 9 days,no toxic side effects were observed
same,toxic side effects,animals; subcutaneous daily doses of 400 ug/kg for 9 days,no toxic side effects were observed
same,killing of HL60 tumor cells,HL60 tumor cells,able to effect killing of HL60 tumor cells
same,proliferation of peripheral mononuclear cells in culture,[1],enhanced proliferation
same,expression of the CD69 T cell activation marker,[1]; human cells in culture,up regulated
same,intracellular calcium,[1]; human cells in culture,increased intracellular calcium
same,toxicity,melanoma; melanoma and myeloma models,negligible toxicity
same,anti-tumor effect,"melanoma; melanoma model, sole agent",potent anti-tumor effects
same,dose at which an acute lethal response was demonstrated,[2]; acute toxicology,exceeding 133 mg/kg
same,proposed dose lower than the toxic dose,[2]; animal toxicity studies,over 1 million
same,dose that would not be lethal for a 75-kg person,"[2]; extrapolated from animal data, not corrected for surface-area-to-weight ratio","9,975 mg"
same,granzyme activity in T cells,[3],increased granzyme activity
same,severe adverse effects,"[4]; over 40 patients, 1-6 months, 1-2 drops of 8× or 6× daily",without any severe adverse effects
same,lymphocyte count,"[4]; patient 102 (lymphocytopenia), 8X dose",improved
same,"energy, well-being and pain","[4]; patient 102, 8X dose","improvements in energy, an overall feeling of well-being and less pain"
same,appetite and weight,"[4]; patient 401 (lung cancer, chemotherapy), 8X dose",able to maintain their appetite and weight
same,Irritable Bowel Syndrome (IBS),[4]; patient 507,improvement in IBS
same,PMS,"[4]; patient 702, 8X dose",less severe PMS
same,ability to work,"[4]; patient 702, 8X dose",improved ability to work
same,discomfort from uterine fibroids,"[4]; patient 702, 8X dose",less discomfort from the fibroids
same,Irritable Bowel Syndrome (IBS),[4]; patient 703,complete resolution of IBS
same,interferon gamma message,interferon gamma,up regulated
same,severe adverse effects,"normal volunteers; 39 normal volunteers, 14 to 28 doses",without any severe adverse effects
same,subjects identified as having physiologic affects by the blinded evaluating physician,normal volunteers; placebo 26%,92%
same,average reduction in allergy symptom frequency,"[5]; five of the eight patients, p=0.017",82%
same,Allergy (lower numbers indicates less frequent allergies),"[5]; patient 102, week 0",10
same,Allergy (lower numbers indicates less frequent allergies),"[5]; patient 102, week 1",10
same,Allergy (lower numbers indicates less frequent allergies),"[5]; patient 102, week 2",10
same,Allergy (lower numbers indicates less frequent allergies),"[5]; patient 102, week 3",10
same,Allergy (lower numbers indicates less frequent allergies),"[5]; patient 102, week 4",10
same,Allergy (lower numbers indicates less frequent allergies),"[5]; patient 102, week 6",8.5
same,Allergy (lower numbers indicates less frequent allergies),"[5]; patient 102, week 7",8.5
same,Allergy (lower numbers indicates less frequent allergies),"[5]; patient 102, week 8",8.5
same,Allergy (lower numbers indicates less frequent allergies),"[5]; patient 102, week 9",8.5
same,Allergy (lower numbers indicates less frequent allergies),"[5]; patient 102, week 10",10
same,Allergy (lower numbers indicates less frequent allergies),"[5]; patient 102, week 11",10
same,Allergy (lower numbers indicates less frequent allergies),"[5]; patient 103, week 0",8
same,Allergy (lower numbers indicates less frequent allergies),"[5]; patient 103, week 1",7
same,Allergy (lower numbers indicates less frequent allergies),"[5]; patient 103, week 2",3
same,Allergy (lower numbers indicates less frequent allergies),"[5]; patient 103, week 5",3
same,Allergy (lower numbers indicates less frequent allergies),"[5]; patient 103, week 7",3
same,Allergy (lower numbers indicates less frequent allergies),"[5]; patient 103, week 8",3
same,Allergy (lower numbers indicates less frequent allergies),"[5]; patient 103, week 9",3
same,Allergy (lower numbers indicates less frequent allergies),"[5]; patient 201, week 0",10
same,Allergy (lower numbers indicates less frequent allergies),"[5]; patient 201, week 1",5
same,Allergy (lower numbers indicates less frequent allergies),"[5]; patient 201, week 2",1
same,Allergy (lower numbers indicates less frequent allergies),"[5]; patient 201, week 3",0
same,Allergy (lower numbers indicates less frequent allergies),"[5]; patient 201, week 4",1
same,allergy symptoms,"[5]; patient 401, 8X dose for 3 months",less frequent and less severe
same,Allergy (lower numbers indicates less frequent allergies),"[5]; patient 401, week 0",9
same,Allergy (lower numbers indicates less frequent allergies),"[5]; patient 401, week 1",9
same,Allergy (lower numbers indicates less frequent allergies),"[5]; patient 401, week 3",3
same,Allergy (lower numbers indicates less frequent allergies),"[5]; patient 401, week 5",3
same,Allergy (lower numbers indicates less frequent allergies),"[5]; patient 401, week 6",2
same,Allergy (lower numbers indicates less frequent allergies),"[5]; patient 401, week 7",2
same,Allergy (lower numbers indicates less frequent allergies),"[5]; patient 401, week 9",3
same,Allergy (lower numbers indicates less frequent allergies),"[5]; patient 401, week 10",4
same,Allergy (lower numbers indicates less frequent allergies),"[5]; patient 401, week 11",3
same,Allergy (lower numbers indicates less frequent allergies),"[5]; patient 402, week 0",6
same,Allergy (lower numbers indicates less frequent allergies),"[5]; patient 402, week 1",3
same,Allergy (lower numbers indicates less frequent allergies),"[5]; patient 402, week 2",2
same,Allergy (lower numbers indicates less frequent allergies),"[5]; patient 402, week 3",2
same,Allergy (lower numbers indicates less frequent allergies),"[5]; patient 402, week 4",3
same,Allergy (lower numbers indicates less frequent allergies),"[5]; patient 701, week 0",10
same,Allergy (lower numbers indicates less frequent allergies),"[5]; patient 701, week 2",10
same,Allergy (lower numbers indicates less frequent allergies),"[5]; patient 701, week 3",10
same,Allergy (lower numbers indicates less frequent allergies),"[5]; patient 701, week 4",10
same,Allergy (lower numbers indicates less frequent allergies),"[5]; patient 701, week 5",10
same,Allergy (lower numbers indicates less frequent allergies),"[5]; patient 701, week 6",10
same,severe allergic response to known allergens,"[5]; patient 702, 8X dose",marked reduction
same,Allergy (lower numbers indicates less frequent allergies),"[5]; patient 702, week 0",10
same,Allergy (lower numbers indicates less frequent allergies),"[5]; patient 702, week 1",10
same,Allergy (lower numbers indicates less frequent allergies),"[5]; patient 702, week 2",10
same,Allergy (lower numbers indicates less frequent allergies),"[5]; patient 702, week 3",5
same,Allergy (lower numbers indicates less frequent allergies),"[5]; patient 702, week 4",6
same,Allergy (lower numbers indicates less frequent allergies),"[5]; patient 702, week 5",3
same,Allergy (lower numbers indicates less frequent allergies),"[5]; patient 703, week 0",10
same,Allergy (lower numbers indicates less frequent allergies),"[5]; patient 703, week 1",10
same,Allergy (lower numbers indicates less frequent allergies),"[5]; patient 703, week 2",10
same,Allergy (lower numbers indicates less frequent allergies),"[5]; patient 703, week 3",10
same,Allergy (lower numbers indicates less frequent allergies),"[5]; patient 703, week 4",10
same,Allergy (lower numbers indicates less frequent allergies),"[5]; patient 703, week 5",10
same,Allergy (lower numbers indicates less frequent allergies),"[5]; patient 703, week 6",10
same,Allergy (lower numbers indicates less frequent allergies),"[5]; patient 703, week 7",10
same,Allergy (lower numbers indicates less frequent allergies),"[5]; patient 703, week 8",10
same,"allergies, most patients of Table 3",[5]; patients with at least moderate allergies at pre-study,decrease in allergies
same,amount of secreted TNF-alpha,[6],decreased or did not change
same,expression of active cell surface protein (TNF-alpha),[6],enhanced expression
same,TNF-alpha message,[6]; unless cells also exposed to high levels of exogenous stimulation (then normalization),up regulated
